This note sets out measurements from USRE37781E1, “Substituted cyclic carbonyls and derivatives thereof useful as retroviral protease inhibitors” (DuPont Pharmaceuticals Company, priority 1991, dated 2002).

What is called IC90 is the concentration at which the effect reaches the 90% level.

The structures appear in SMILES notation. Converted amounts (≈) assume the structure as drawn.

The subject of one assay is HIV-1 (RF) in MT-2 cells. Kind of assay: microbe, parasite or virus in culture. The assay is classed as cell-based. The settings on record: Human immunodeficiency virus 1, MT2, 48 h, Table 2d; class symbols; read-out: IC90. The essentials: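 HIV-1 laboratory strains (RF, MN, IIIB) grown in H9 cells in RPMI 1640 with 5% FCS; infections in MT-2 cells. Viral RNA quantified by hybridization with biotinylated gag/pol capture probes on streptavidin plates and alkaline phosphatase-conjugated reporter probes; BH10 gag-pol in vitro transcripts serve as RNA standards.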
With `CSCCCCCN1C(=O)N(CCCCCO)C(Cc2ccccc2)C(O)C(O)C1Cc1ccccc1` (centres unmarked) [Example 15VJ], the IC90 was less than 10 µg/mL.
On the same count and under the same terms, then `O=C1N(CCCCCO)C(Cc2ccccc2)C(O)C(O)C(Cc2ccccc2)N1Cc1ccc(CO)cc1` (centres unmarked) [Example 15VK], with less than 10 µg/mL; and `CCC(O)CN1C(=O)NC(Cc2ccccc2)C(O)C(O)C1Cc1ccccc1` (centres unmarked) [Example 15VL], with greater than 50 µg/mL; and `CCCCC(O)CN1C(=O)NC(Cc2ccccc2)C(O)C(O)C1Cc1ccccc1` (centres unmarked) [Example 15VM], with greater than 50 µg/mL.
Same read-out and setting: under `CCC(=O)CN1C(=O)N(CC(=O)CC)C(Cc2ccccc2)C(O)C(O)C1Cc1ccccc1` (centres unmarked) [Example 15VO] stands greater than 50 µg/mL; under `CCC(CN1C(=O)N(CC(CC)=NO)C(Cc2ccccc2)C(O)C(O)C1Cc1ccccc1)=NO` (centres unmarked) [Example 15VP], 10 to 100 µg/mL (≈ 20.1 to 201 µM).
As for `O=C1N(CCCCCCO)C(Cc2ccccc2)C(O)C(O)C(Cc2ccccc2)N1Cc1ccc2ccccc2c1` (centres unmarked) [Example 15VQ], the IC90 is less than 10 µg/mL.
As to `O=C1N(CCCCCO)C(Cc2ccccc2)C(O)C(O)C(Cc2ccccc2)N1Cc1cccc(O)c1` (centres unmarked) [Example 15VR], the IC90 was less than 10 µg/mL.
On the same count and under the same terms, under `O=C1N(CCCCCO)C(Cc2ccccc2)C(O)C(O)C(Cc2ccccc2)N1CC1CC1` (centres unmarked) [Example 15VU] stands less than 10 µg/mL.
Consider `COCCCCCN1C(=O)N(CCCCCOC)C(Cc2ccccc2)C(O)C(O)C1Cc1ccccc1` (centres unmarked) [Example 15VV], for which the concentration for an effect of 90% (IC90) fell in the range of 10 to 100 µg/mL (≈ 19 to 190 µM).
Consider `COCCCCCN1C(=O)N(CCCCCO)C(Cc2ccccc2)C(O)C(O)C1Cc1ccccc1` (centres unmarked) [Example 15VW], for which the concentration for an effect of 90% (IC90) was less than 10 µg/mL.
Turning to `N#Cc1cccc(CN2C(=O)N(CCCCCO)C(Cc3ccccc3)C(O)C(O)C2Cc2ccccc2)c1` (centres unmarked) [Example 15VX], the 90% effect concentration (IC90) was less than 10 µg/mL.
The same measure, in the same setting: under `CCOC(=O)c1cccc(CN2C(=O)N(CCCCCO)C(Cc3ccccc3)C(O)C(O)C2Cc2ccccc2)c1` (centres unmarked) [Example 15VY] stands less than 10 µg/mL; under `CC(O)CCCCN1C(=O)N(CCCCC(C)O)C(Cc2ccccc2)C(O)C(O)C1Cc1ccccc1` (centres unmarked) [Example 15VZ], less than 10 µg/mL.
On the same count and under the same terms, then `CC(=O)CCCCN1C(=O)N(CCCCC(C)=O)C(Cc2ccccc2)C(O)C(O)C1Cc1ccccc1` (centres unmarked) [Example 15WB], with 10 to 100 µg/mL (≈ 19.1 to 191 µM); and `CC(CCCCN1C(=O)N(CCCCC(C)=NO)C(Cc2ccccc2)C(O)C(O)C1Cc1ccccc1)=NO` (centres unmarked) [Example 15WC], with less than 10 µg/mL.
As to `NCCCCCCN1C(=O)N(Cc2ccc(CO)cc2)C(Cc2ccccc2)C(O)C(O)C1Cc1ccccc1` (centres unmarked) [Example 15WD], the IC90 was less than 10 µg/mL.
Still for that read-out and setting: under `O=C1N(CCCCCO)C(Cc2ccccc2)C(O)C(O)C(Cc2ccccc2)N1Cc1cccc(CO)c1` (centres unmarked) [Example 15WE] stands less than 10 µg/mL.

Staying with this assay, now noted: Table 2d; class symbols.
Consider `O=C1NC(Cc2ccccc2)C(O)C(O)C(Cc2ccccc2)N1CC1CCC(=NO)CC1` (centres unmarked) [Example 15VC], for which the IC90 entry is “++/+ (The ++/+ is used in the cases where an IC90 was determined to be >50 μg/mL)”.

The next assay addresses single-chain tethered dimer of HIV protease (Human immunodeficiency virus 1, UniProt P04585). Kind of assay: biochemical. The following applies: Table 2d; class symbols; read-out: HPLC K1. It is filed as biochemical. Also noted: fused on or other part: A second copy of the same protease unit is joined to the first by a short peptide tether, giving one polypeptide.
As for `O=C1NC(Cc2ccccc2)C(O)C(O)C(Cc2ccccc2)N1CC1CCC(=NO)CC1` (centres unmarked) [Example 15VC], the Ki was in the range of 10 to 1000 nM.

The assay is the same for the next values; noted with them: read-out: HPLC K1; Table 2d; class symbols.
Turning to `CSCCCCCN1C(=O)N(CCCCCO)C(Cc2ccccc2)C(O)C(O)C1Cc1ccccc1` (centres unmarked) [Example 15VJ], the Ki lay within 10 to 1000 nM.
Still for that read-out and setting: under `O=C1N(CCCCCO)C(Cc2ccccc2)C(O)C(O)C(Cc2ccccc2)N1Cc1ccc(CO)cc1` (centres unmarked) [Example 15VK] stands less than 10 nM.
Same read-out and setting: then `CCC(O)CN1C(=O)NC(Cc2ccccc2)C(O)C(O)C1Cc1ccccc1` (centres unmarked) [Example 15VL], with greater than 1000 nM; and `CCCCC(O)CN1C(=O)NC(Cc2ccccc2)C(O)C(O)C1Cc1ccccc1` (centres unmarked) [Example 15VM], with greater than 1000 nM.
For the compound `CCC(=O)CN1C(=O)N(CC(=O)CC)C(Cc2ccccc2)C(O)C(O)C1Cc1ccccc1` (centres unmarked) [Example 15VO], the Ki was in the range of 10 to 1000 nM.
In the case of `CCC(CN1C(=O)N(CC(CC)=NO)C(Cc2ccccc2)C(O)C(O)C1Cc1ccccc1)=NO` (centres unmarked) [Example 15VP], the Ki was in the range of 10 to 1000 nM.
Regarding `O=C1N(CCCCCCO)C(Cc2ccccc2)C(O)C(O)C(Cc2ccccc2)N1Cc1ccc2ccccc2c1` (centres unmarked) [Example 15VQ], the Ki was less than 10 nM.
The same measure, in the same setting: then `O=C1N(CCCCCO)C(Cc2ccccc2)C(O)C(O)C(Cc2ccccc2)N1Cc1cccc(O)c1` (centres unmarked) [Example 15VR], with less than 10 nM; and `O=C1N(CCCCCO)C(Cc2ccccc2)C(O)C(O)C(Cc2ccccc2)N1CC1CC1` (centres unmarked) [Example 15VU], with less than 10 nM.
For the compound `COCCCCCN1C(=O)N(CCCCCOC)C(Cc2ccccc2)C(O)C(O)C1Cc1ccccc1` (centres unmarked) [Example 15VV], the Ki fell in the range of 10 to 1000 nM.
Still for that read-out and setting: then `COCCCCCN1C(=O)N(CCCCCO)C(Cc2ccccc2)C(O)C(O)C1Cc1ccccc1` (centres unmarked) [Example 15VW], with less than 10 nM; and `N#Cc1cccc(CN2C(=O)N(CCCCCO)C(Cc3ccccc3)C(O)C(O)C2Cc2ccccc2)c1` (centres unmarked) [Example 15VX], with less than 10 nM.
On to `CCOC(=O)c1cccc(CN2C(=O)N(CCCCCO)C(Cc3ccccc3)C(O)C(O)C2Cc2ccccc2)c1` (centres unmarked) [Example 15VY], for which the Ki was less than 10 nM.
Still for that read-out and setting: then `CC(O)CCCCN1C(=O)N(CCCCC(C)O)C(Cc2ccccc2)C(O)C(O)C1Cc1ccccc1` (centres unmarked) [Example 15VZ], with less than 10 nM.
Same read-out and setting: under `CC(=O)CCCCN1C(=O)N(CCCCC(C)=O)C(Cc2ccccc2)C(O)C(O)C1Cc1ccccc1` (centres unmarked) [Example 15WB] stands 10 to 1000 nM.
With `CC(CCCCN1C(=O)N(CCCCC(C)=NO)C(Cc2ccccc2)C(O)C(O)C1Cc1ccccc1)=NO` (centres unmarked) [Example 15WC], the Ki was in the range of 10 to 1000 nM.
Same read-out and setting: then `NCCCCCCN1C(=O)N(Cc2ccc(CO)cc2)C(Cc2ccccc2)C(O)C(O)C1Cc1ccccc1` (centres unmarked) [Example 15WD], with 10 to 1000 nM; and `O=C1N(CCCCCO)C(Cc2ccccc2)C(O)C(O)C(Cc2ccccc2)N1Cc1cccc(CO)c1` (centres unmarked) [Example 15WE], with less than 10 nM.
